Source: patent US9115126B2, “1H-[1,2,3]triazolo[4,5-c]pyridine-4-carbonitrile derivatives” (Merck Sharp & Dohme B.V., priority 2010, dated 2015)
Counter-ions that a name gives are not always drawn. Like-named read-outs stand apart in the source and are kept apart here.

Target: recombinant human Cathepsin S (Homo sapiens (Human), UniProt P25774)
Experiment: Cathepsin S assay procedure (fluorogenic substrate Z-Val-Val-Arg-AMC)
Type: biochemical
Experimental: 25 μl of a 2 mg/l solution of activated recombinant human cathepsin S, in assay buffer, is then added to the well, yielding a final inhibitor concentration of 10 μM.
Enzyme activity is determined by measuring the fluorescence of the liberated aminomethylcoumarin at […] using 390 nm excitation, at 20 minutes. Percentage enzyme activity is calculated by comparison of this activity to that of a solution containing no inhibitor.

[1] = pH5.5, fluorescence at 20 minutes, read-out: Cat S activity IC50
[2] = read-out: pIC50 (negative logarithm of the IC50 concentration) for inhibition of human cathepsin S (converted)

Chain of recombinant human Cathepsin S (P25774 115-331): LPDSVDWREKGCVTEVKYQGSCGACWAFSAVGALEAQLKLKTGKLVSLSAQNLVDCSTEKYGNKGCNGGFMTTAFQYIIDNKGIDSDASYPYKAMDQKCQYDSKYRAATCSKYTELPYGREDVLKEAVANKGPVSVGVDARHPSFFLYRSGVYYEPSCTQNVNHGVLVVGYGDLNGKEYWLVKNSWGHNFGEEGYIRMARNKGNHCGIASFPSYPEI

Compound	IC50 [1] [nM]	IC50 [2] [nM]
Cc1cccc(N2CCC(CCOc3ccc(-c4cc5c(ncn5C)c(C#N)n4)cc3C(F)(F)F)CC2)n1 [EP 09150709.5 - Example 24c, reference compound]	26	
Cn1nnc2c(C#N)nc(-c3ccc(OCCC4CCNCC4)c(C(F)(F)F)c3)cc21 [Example 1, 1-methyl-6-(4-(2-(piperidin-4-yl)ethoxy)-3-(trifluoromethyl)phenyl)-1H-[1,2,3]triazolo[4,5-c]pyridine-4-carbonitrile]	0.8	< 10
CNC(=O)CN1CCC(CCOc2ccc(-c3cc4c(nnn4C)c(C#N)n3)cc2C(F)(F)F)CC1 [Example 2b, 1-methyl-6-(4-(2-(1-(2-methylamino-2-oxoethyl)piperidin-4-yl)ethoxy)-3-(trifluoromethyl)phenyl)-1H-[1,2,3]triazolo[4,5-c]pyridine-4-carbonitrile TFA salt]		< 10
Cn1nnc2c(C#N)nc(-c3ccc(OCCC4CCN(CC(N)=O)CC4)c(C(F)(F)F)c3)cc21 [Example 2c, 6-(4-(2-(1-(2-amino-2-oxoethyl)piperidin-4-yl)ethoxy)-3-(trifluoromethyl)phenyl)-1-methyl-1H-[1,2,3]triazolo[4,5-c]pyridine-4-carbonitrile]		< 10
Cc1ccc(N2CCC(CCOc3ccc(-c4cc5c(nnn5C)c(C#N)n4)cc3C(F)(F)F)CC2)nc1 [Example 8, 1-methyl-6-(4-(2-(1-(5-methylpyridin-2-yl)piperidin-4-yl)ethoxy)-3-(trifluoromethyl)phenyl)-1H-[1,2,3]triazolo[4,5-c]pyridine-4-carbonitrile hydrochloride]		< 10

Results, then the compound that gave them:

IC50 [1] [nM]	IC50 [2] [nM]	Compound
	< 10	Cn1nnc2c(C#N)nc(-c3ccc(OCCC4CCN(Cc5ncon5)CC4)c(C(F)(F)F)c3)cc21 [Example 3c, 6-(4-(2-(1-((1,2,4-oxadiazol-3-yl)methyl)piperidin-4-yl)ethoxy)-3-(trifluoromethyl)phenyl)-1-methyl-1H-[1,2,3]triazolo[4,5-c]pyridine-4-carbonitrile]
	< 10	Cn1nnc2c(C#N)nc(-c3ccc(OCCC4CCN(Cc5ncno5)CC4)c(C(F)(F)F)c3)cc21 [Example 3k, 6-(4-(2-(1-((1,2,4-oxadiazol-5-yl)methyl)piperidin-4-yl)ethoxy)-3-(trifluoromethyl)phenyl)-1-methyl-1H-[1,2,3]triazolo[4,5-c]pyridine-4-carbonitrile]
	< 10	Cn1nnc2c(C#N)nc(-c3ccc(OCCC4CCN(c5ccccn5)CC4)c(C(F)(F)F)c3)cc21 [Example 4a, 1-methyl-6-(4-(2-(1-(pyridin-2-yl)piperidin-4-yl)ethoxy)-3-(trifluoromethyl)phenyl)-1H-[1,2,3]triazolo[4,5-c]pyridine-4-carbonitrile hydrochloride]
9	< 10	Cc1cccc(N2CCC(CCOc3ccc(-c4cc5c(nnn5C)c(C#N)n4)cc3C(F)(F)F)CC2)n1 [Example 4b, 1-methyl-6-(4-(2-(1-(6-methylpyridin-2-yl)piperidin-4-yl)ethoxy)-3-(trifluoromethyl)phenyl)-1H-[1,2,3]triazolo[4,5-c]pyridine-4-carbonitrile hydrochloride]
	< 10	Cc1ccc(N2CC[C@@H](CCOc3ccc(-c4cc5c(nnn5C)c(C#N)n4)cc3C(F)(F)F)C2)nc1 [Example 9a, (S)-1-methyl-6-(4-(2-(1-(5-methylpyridin-2-yl)pyrrolidin-3-yl)ethoxy)-3-(trifluoromethyl)phenyl)-1H-[1,2,3]triazolo[4,5-c]pyridine-4-carbonitrile hydrochloride]
	< 10	Cc1ccc(N2CC[C@H](CCOc3ccc(-c4cc5c(nnn5C)c(C#N)n4)cc3C(F)(F)F)C2)nc1 [Example 9b, (R)-1-methyl-6-(4-(2-(1-(5-methylpyridin-2-yl)pyrrolidin-3-yl)ethoxy)-3-(trifluoromethyl)phenyl)-1H-[1,2,3]triazolo[4,5-c]pyridine-4-carbonitrile hydrochloride]
